Measured values as given in article PMC3598812, “Evaluation of Anti-Hyperalgesic and Analgesic Effects of Two Benzodiazepines in Human Experimental Pain: A Randomized Placebo-Controlled Study” (PLoS ONE, 2013).
“Also recorded” adds a separate entry of the source.

Assays:
Format in all cases: in vivo, human
healthy male volunteers [1] = test: Area of static hyperalgesia after intradermal capsaicin injection (512 mN von Frey hair); conditions: for Change in the area of static hyperalgesia over time: main analysis, pairwise multiple comparisons within each drug; for Area of static hyperalgesia: single oral dose (clobazam 20 mg, clonazepam 1 mg, tolterodine 1 mg), mean (SD)
Description: Intradermal injection of capsaicin causes a brief stinging/burning pain at the injection site followed by development of secondary hyperalgesia, i.e. hyperalgesia detected at surrounding (not injected) skin [15], [16]. Secondary hyperalgesia after intradermal capsaicin is the result of sensitization of the central nervous system, which is one of the most relevant aspects of neuroplastic changes. This model was sensitive to the action of GABAergic compounds in animal studies.
The capsaicin solution was prepared by the Hospital Pharmacy and underwent sterile filtration into sterile septum-sealed vials. The sterile solution (1 mg/ml) was placed into sterile syringes and used for intradermal injection at room temperature. The skin temperature was measured using a digital thermometer, and was 32°C+/−1 in all subjects.
Subjects remained semi-supine during the experiment. Before capsaicin injection, the skin of the forearm was cleaned using an antiseptic wipe and allowed to air dry. The injection site was marked midway between the elbow and the wrist. Using a surgical skin marker, 4 lines were drawn through the injection site, so that they intersected the corners of a regular octagon (figure 2). These lines were marked every 0.5 cm from the center to the edges using a predefined grid. […] We determined the area of hyperalgesia by adding the areas of each triangle in which hyperalgesia was recorded.
Using a 1-ml tuberculin syringe fitted with a 27-gauge disposable needle, 100 µl capsaicin were injected […] into the skin, at the intersection of the 4 vectors previously drawn. A white skin elevation appeared during injection ensuring correct injection.
Static mechanical hyperalgesia was judged to be present when the subjects reported that applying a 512 mN von Frey Hair, 5 and 30 minutes after capsaicin injection, elicited pain with an intensity of at least 4 using a numerical rating scale (NRS, whereby 0 = no pain and 10 = worst pain). Only these subjects were included in the study. In order to document pain induction, the subject recorded pain intensity at injection and 5 minutes post-injection using a 10 cm visual analogue pain scale (VAS), whereby 0 = no pain and 10 = worst pain imaginable.
The area of secondary hyperalgesia was assessed using a calibrated 512 mN von Frey hair. The punctuated probe was moved along the 8 radial lines defined above, starting approximately 6 cm away from the site of injection, at each mark in steps of 0.5 cm. The weighted von Frey hair was placed gently on the skin and the load was applied for 2 seconds. The volunteers were asked to report when the pricking sensation changed to a pain sensation. At least 4 seconds elapsed between consecutive stimuli. This procedure was repeated for each vector. The number corresponding to the marker at which sensation changes as described above was noted and the individual numbers were used to calculate the area of hyperalgesia.
The flow of the experiment is illustrated in figure 3. After training, basal values for the pain tests were determined. The study medication was given immediately after the intradermal injection of capsaicin. Thus, basal values were recorded for all tests, except for those related to capsaicin injection. Because of the relatively short duration of hyperalgesia induced by capsaicin, the recordings of basal values before drug administration would yield a too short testing procedure.

healthy male volunteers [2] = test: Area of dynamic mechanical hyperalgesia after intradermal capsaicin (cotton wool stroking); conditions: single oral dose (clobazam 20 mg, clonazepam 1 mg, tolterodine 1 mg), mean (SD)
Description: The area of dynamic mechanical hyperalgesia was determined by gently stroking a hand-held cotton wool tip on a 1 cm strip of the skin, at a rate of approximately 1 cm/s. Subjects were asked to report when the sensation changed from a non-painful to a painful sensation. The borders of dynamic hyperalgesia were delineated similarly to the determination of static hyperalgesia.

healthy male volunteers [3] = test: Conditioned pain modulation (cold pressor test and pressure algometry); conditions: difference in pressure pain detection threshold after vs before cold pressor test, mean (SD)
Description: This method explores the endogenous modulation of nociceptive input. Under normal conditions, pain after application of a “test” nociceptive stimulus is attenuated by the application of an additional conditioning noxious stimulus to a remote body region, reflecting diffuse endogenous inhibition, [20]. In the present study, pressure pain detection threshold and cold pressure test (see below) were used as test and conditioning stimuli, respectively. An increase in pressure pain detection threshold immediately after cold pressure test was an indication of CPM.
The subjects placed their hand into a container filled with ice water. In order to maximize heterotopic stimulation, the hand contralateral to the side of pressure stimulation was used. The water was regularly mixed to maintain the temperature near to 0°C. The temperature of the water near the hand was monitored by a thermometer with a digital display (±0.1°C). The subjects were asked to keep the hand in the water until they felt an intolerable sensation of pain and were forced to remove the hand from the container, with a maximum time of 2 min.
Pressure pain detection threshold was measured again at the same time as the subject was withdrawing the hand from the water (one single measurement). CPM was measured as the difference in pressure pain detection threshold between measurements after and before the cold pressure test.

healthy male volunteers [4] = test: Cutaneous repeated (20 stimuli) electrical stimulation, VAS; parameters: AUC of VAS during 20 cutaneous electrical stimuli: unit not given beside the values; conditions: mean (SD); for Maximal VAS during 20 cutaneous electrical stimuli: VAS 0-10
Description: The stimulus burst used for single stimulus was repeated for a train of 20 pulses at 2 Hz, at an intensity corresponding to the temporal summation threshold. During this 10 s stimulation, pain intensity was continuously rated by the subject with an electronic VAS, and the area under the curve (AUC) was computed. Additionally, the maximal VAS during stimulation was recorded.

healthy male volunteers [5] = test: Intramuscular repeated (5 stimuli) electrical stimulation pain threshold; conditions: for Pain threshold after 5 intramuscular electrical stimuli: mean (SD); for Change in pain threshold after 5 intramuscular electrical stimuli between baseline and 120 minutes: main analysis, pairwise multiple comparison; for Change in pain detection threshold after 5 intramuscular electrical stimuli from baseline to peak value: peak value analysis, pairwise comparisons within each drug
Description: The stimulus burst used for single stimulus was repeated 5 times at 2 Hz, at constant intensity. The current intensity of the 5 stimuli was increased from 1 mA in steps of 0.5 mA until the subjects felt pain during the last 2–3 of the 5 stimuli (indicating temporal summation).
A needle was placed in the tibialis anterior muscle, 14 cm distal from the caudal end of the patella and 20 mm in depth. The same single and repeated stimulation patterns and the same procedure described for cutaneous stimulation were used.

[6] = baseline before medication, per drug session
[7] = single oral dose (clobazam 20 mg, clonazepam 1 mg, tolterodine 1 mg), 120 min after medication
[8] = single oral dose (clobazam 20 mg, clonazepam 1 mg, tolterodine 1 mg), after flumazenil 0.2 mg iv
[9] = single oral dose (clobazam 20 mg, clonazepam 1 mg, tolterodine 1 mg), 30 min after medication
[10] = single oral dose (clobazam 20 mg, clonazepam 1 mg, tolterodine 1 mg), 60 min after medication
[11] = single oral dose (clobazam 20 mg, clonazepam 1 mg, tolterodine 1 mg), 90 min after medication

Compound	Change in the area of static hyperalgesia over time (healthy male volunteers [1])	Area of static hyperalgesia (healthy male volunteers [1]; 30 min after medication)	Area of static hyperalgesia (healthy male volunteers [1]; 60 min after medication)	Area of static hyperalgesia (healthy male volunteers [1]; 90 min after medication)	Area of static hyperalgesia (healthy male volunteers [1]; 120 min after medication)	Area of static hyperalgesia (healthy male volunteers [1]; after flumazenil 0.2 mg iv)	Area of dynamic hyperalgesia (healthy male volunteers [2]; 30 min after medication)	Area of dynamic hyperalgesia (healthy male volunteers [2]; 60 min after medication)	Area of dynamic hyperalgesia (healthy male volunteers [2]; 90 min after medication)	Area of dynamic hyperalgesia (healthy male volunteers [2]; 120 min after medication)	Area of dynamic hyperalgesia (healthy male volunteers [2]; after flumazenil 0.2 mg iv)	Conditioned pain modulation (healthy male volunteers [3]; [6])	Conditioned pain modulation (healthy male volunteers [3]; [7])	Conditioned pain modulation (healthy male volunteers [3]; [8])	Maximal VAS during 20 cutaneous electrical stimuli (healthy male volunteers [4]; [6])	Maximal VAS during 20 cutaneous electrical stimuli (healthy male volunteers [4]; [9])	Maximal VAS during 20 cutaneous electrical stimuli (healthy male volunteers [4]; [10])	Maximal VAS during 20 cutaneous electrical stimuli (healthy male volunteers [4]; [11])	Maximal VAS during 20 cutaneous electrical stimuli (healthy male volunteers [4]; [7])	Maximal VAS during 20 cutaneous electrical stimuli (healthy male volunteers [4]; [8])	further results
Cc1ccc(O)c([C@H](CCN(C(C)C)C(C)C)c2ccccc2)c1 [Tolterodine]	significantly increased; also recorded: Significant increase in the area of hyperalgesia only for tolterodine	36.3 (10.6) cm^2	40.6 (11.5) cm^2	43.8 (11.9) cm^2	44.7 (10.9) cm^2	47.6 (13.7) cm^2	20.3 (11.6) cm^2	23.3 (09.0) cm^2	23.1 (11.3) cm^2	23.3 (09.1) cm^2	24.7 (14.6) cm^2	68 (100) kPa	72 (114) kPa	77 (79) kPa	4.7 (1.5)	5.1 (1.6)	4.8 (1.8)	4.9 (1.8)	4.6 (1.8)	4.7 (1.6)	AUC of VAS during 20 cutaneous electrical stimuli (healthy male volunteers [4]; [6]): 379 (155); AUC of VAS during 20 cutaneous electrical stimuli (healthy male volunteers [4]; [9]): 382 (134); AUC of VAS during 20 cutaneous electrical stimuli (healthy male volunteers [4]; [10]): 362 (155); AUC of VAS during 20 cutaneous electrical stimuli (healthy male volunteers [4]; [11]): 336 (143); AUC of VAS during 20 cutaneous electrical stimuli (healthy male volunteers [4]; [7]): 328 (144); AUC of VAS during 20 cutaneous electrical stimuli (healthy male volunteers [4]; [8]): 326 (136); Pain threshold after 5 intramuscular electrical stimuli (healthy male volunteers [5]; [6]): 1.6 (1.2) mA; Change in pain threshold after 5 intramuscular electrical stimuli between baseline and 120 minutes (healthy male volunteers [5]): not; Change in pain threshold after 5 intramuscular electrical stimuli between baseline and 120 minutes (healthy male volunteers [5]; listed as tolterodine): no statistically significant change; Change in pain detection threshold after 5 intramuscular electrical stimuli from baseline to peak value (healthy male volunteers [5]): not; Pain threshold after 5 intramuscular electrical stimuli (healthy male volunteers [5]; [7]): 1.9 (1.2) mA; Pain threshold after 5 intramuscular electrical stimuli (healthy male volunteers [5]; [8]): 2.2 (1.5) mA
CN1C(=O)CC(=O)N(c2ccccc2)c2cc(Cl)ccc21 [Clobazam]	no statistically significant increase	39.7 (18.6) cm^2	44.3 (17.1) cm^2	43.0 (15.0) cm^2	43.6 (16.5) cm^2	43.8 (15.0) cm^2	22.3 (13.2) cm^2	22.9 (12.4) cm^2	22.4 (13.6) cm^2	16.7 (13.0) cm^2	21.3 (14.6) cm^2	71 (98) kPa	99 (99) kPa	58 (67) kPa	4.7 (1.8)	4.9 (2.2)	4.7 (1.9)	4.3 (2.0)	4.2 (1.8)	4.5 (1.7)	AUC of VAS during 20 cutaneous electrical stimuli (healthy male volunteers [4]; [6]): 332 (142); AUC of VAS during 20 cutaneous electrical stimuli (healthy male volunteers [4]; [9]): 338 (152); AUC of VAS during 20 cutaneous electrical stimuli (healthy male volunteers [4]; [10]): 341 (167); AUC of VAS during 20 cutaneous electrical stimuli (healthy male volunteers [4]; [11]): 328 (169); AUC of VAS during 20 cutaneous electrical stimuli (healthy male volunteers [4]; [7]): 314 (146); AUC of VAS during 20 cutaneous electrical stimuli (healthy male volunteers [4]; [8]): 339 (150); Pain threshold after 5 intramuscular electrical stimuli (healthy male volunteers [5]; [6]): 1.4 (1.1) mA; Change in pain threshold after 5 intramuscular electrical stimuli between baseline and 120 minutes (healthy male volunteers [5]): statistically significant increase; also recorded: Significant increase in pain thresholds; Change in pain detection threshold after 5 intramuscular electrical stimuli from baseline to peak value (healthy male volunteers [5]): significant increase; also recorded: Consistent for an increase in pain thresholds after clobazam and clonazepam; Pain threshold after 5 intramuscular electrical stimuli (healthy male volunteers [5]; [7]): 2.1 (2.2) mA; Pain threshold after 5 intramuscular electrical stimuli (healthy male volunteers [5]; [8]): 2.2 (2.0) mA
